Molecules are shown by their SMILES. Activity calls are given as the source filed them. The calls are words filed in the database; no cut-off is given here.

The species entered for data set [1] is Cavia porcellus. Description: In vitro inhibitory activity of collagen (0.8 ug/mL)-induced platelet aggregation in guinea pig platelet rich plasma at a dose of 0.8 ug/mL. The class given is functional.
The species entered for data set [2] is Cavia porcellus. Nature of the data set: In vitro inhibitory activity of thrombin (0.625 IU/mL)-induced platelet aggregation in guinea pig platelet rich plasma after 2 min. Format: functional.
For data set [3], the species on record is Cavia porcellus. Nature of the data set: In vitro inhibitory activity of thrombin (0.625 IU/mL)-induced platelet aggregation in guinea pig platelet rich plasma after 4 min. Format: functional.
For data set [4], the species on record is Cavia porcellus. Nature of the data set: In vitro irreversible inhibitory activity of adenosine diphosphate (0.5 uM)-induced platelet aggregation in guinea pig platelet rich plasma. The class given is functional.
For data set [5], the species on record is Cavia porcellus. Description: In vitro reversible inhibitory activity of adenosine diphosphate (0.5 uM)-induced platelet aggregation in guinea pig platelet rich plasma. Format: functional.
For data set [6], the species on record is Cavia porcellus. Nature of the data set: Inotropic activity against guinea pig spontaneously beating atria. Format: functional.
Data set [7] deals with Mus musculus. Description: Antithrombotic activity in mouse when administered a dose of 20 mg/kg perorally. The settings on record: route oral. Format: functional.
For data set [8], the system named is Mus musculus. Nature of the data set: (§1) Lethal dose in mouse by administering compound intraperitoneally. The class given is toxicity, organism-based. The settings on record: in vivo, ip.
For data set [9], the system named is Rattus norvegicus. Nature of the data set: Antihypertensive activity in hypertensive rats, after peroral administration that lowered the blood pressure by 50 mmHg; Valure ranges from 1.67 to 5.40. Format: functional. Particulars: po.
Data set [10] relates to Rattus norvegicus. Description: Variation in heart rate when 25 mg/kg administered orally in rats. The class given is functional. Particulars: route oral.
For data set [11], the species on record is Rattus norvegicus. Description: Antihypertensive action versus dihydralazine. Format: functional.
Data set [12] can be described thus: Lethal dose in mouse was determined by administering perorally. The class given is toxicity, organism-based. Particulars: in vivo, po.
The nature of data set [13]: as §1. Particulars: in vivo, ip. The class given is toxicity, organism-based.
Data set [14] concerns Rattus norvegicus. Nature of the data set: Antihypertensive activity in hypertensive rats, after peroral administration that lowered the blood pressure by 50 mmHg. Format: functional. Particulars: po.
Data set [15] can be described thus: divya_inp96 Lethal dose in mouse by administering compound intraperitoneally. The class given is toxicity, organism-based. The settings on record: in vivo, ip.
For data set [16], the species on record is Cavia porcellus. Description: Inhibitory activity of thrombin (0.625 IU/mL)-induced platelet aggregation in guinea pig platelet rich plasma after 2 min. The class given is functional.
In data set [17] the test system is Rattus norvegicus. Nature of the data set: Antihypertensive activity in hypertensive rats, after peroral administration that lowered the blood pressure by 50 mmHg; value ranges from 6.52 to 14.62. Format: functional. The settings on record: po.
The subject of data set [18] is Mus musculus. Nature of the data set: Antithrombotic activity in mouse when administered a dose of 20 mg/kg perorally; NA means inactive. The class given is functional, organism-based. Set-up: dose 20 mg/kg.
Data set [19] relates to Rattus norvegicus. Nature of the data set: Antihypertensive activity in hypertensive rats, after peroral administration that lowered the blood pressure by 50 mmHg; value ranges from 3.50 to 4.80. The class given is functional. The settings on record: po.
The subject of data set [20] is Rattus norvegicus. Description: Antihypertensive activity in hypertensive rats, after peroral administration that lowered the blood pressure by 50 mmHg; value ranges from 2.50 to 6.50. The class given is functional. Particulars: po.
For data set [21], the species on record is Cavia porcellus. Nature of the data set: In vitro irreversible inhibitory activity of adenosine diphosphate (0.5 uM)-induced platelet aggregation in guinea pig platelet rich plasma; NA means inactive. The class given is functional.
The species entered for data set [22] is Cavia porcellus. Nature of the data set: In vitro reversible inhibitory activity of adenosine diphosphate (0.5 uM)-induced platelet aggregation in guinea pig platelet rich plasma; NA means inactive. The class given is functional.
The test system of data set [23] is Rattus norvegicus. Nature of the data set: divya_inp96 Antihypertensive activity in hypertensive rats, after peroral administration that lowered the blood pressure by 50 mmHg. The class given is functional. Particulars: po.
In data set [24] the test system is Rattus norvegicus. Nature of the data set: Antihypertensive activity in hypertensive rats, after peroral administration that lowered the blood pressure by 50 mmHg; value ranges from 0.52 to 4.88. Particulars: po. The class given is functional.

In general, Inhibition refers to the drop in the measured response relative to a control, in per cent. In general, LD50 refers to the dose at which mortality reaches 50%. Higher therefore signals a less toxic substance. The term ED50 denotes the dose that gives a 50% effect, or the effect in half of the subjects. Low values mean an effect at a small dose, high ones a need for a large dose. Turning to `CC(=O)Nc1ccc2c(c1)CCC1CC(=O)NN=C21` (racemic), the Inhibition in the data set listed under Cavia porcellus [1] is reported as 47%; in the data set listed under Cavia porcellus [2], 65%; in the data set filed under Cavia porcellus [3], 66%; in the data set filed under Cavia porcellus [4], 92%; in the data set filed under Cavia porcellus [5], 47%. Further, the pD2 in the data set listed under Cavia porcellus [6] is listed as 5.54. Besides, the Protection in the data set on Mus musculus [7] (20 mg/kg) was determined as 100%. Besides, the LD50 is 460 mg/kg in the data set with Mus musculus [8] and over 1000 mg/kg in [12]. For the same compound, it took a dose of 3.1 mg/kg to reach the 50% effect level in the data set with Rattus norvegicus [9] (ED50). Further, in the data set on Rattus norvegicus [10] (25 mg/kg), the Peak effect turned out to be 90. Further, in the data set filed under Rattus norvegicus [11], the Relative activity was determined as 1.32.
Compound `CC(=O)Nc1ccc2c(c1)CCCC1CC(=O)NN=C21` (stereo not given) came in with a Protection with Mus musculus [7] of 46%. For the same compound, the LD50 in data set [13] and in data set [12] was over 1000 mg/kg each time.
Consider `CC(=O)Nc1ccc2c(c1)C1=NNC(=O)CC1CC2` (stereo not given), for which the Inhibition in the data set listed under Cavia porcellus [1] stood at 62%; in the data set listed under Cavia porcellus [2], 17%; in the data set filed under Cavia porcellus [3], 14%; in the data set filed under Cavia porcellus [4], 6%; in the data set listed under Cavia porcellus [5], 0%. Moreover, in the data set with Mus musculus [7], the Protection stood at 25%. Besides, the LD50 in [13] and in [12] was over 1000 mg/kg throughout.
Compound `Oc1cc2c(nn1)-c1ccccc1CC2` had a pD2 in the data set filed under Cavia porcellus [6] of 4.74. The compound further had a Protection in the data set on Mus musculus [7] of 33%. Besides, the LD50 in data set [13] is 707 mg/kg; in [12], over 1000 mg/kg. The compound further showed an ED50 with Rattus norvegicus [14] of over 25 mg/kg. The Peak effect in the data set on Rattus norvegicus [10] is reported as -35.
For `O=C1CC2CCc3ccccc3C2=NN1` (stereo not given), the Inhibition turned out to be 100% in the data set listed under Cavia porcellus [1]; 84% in the data set listed under Cavia porcellus [2]; 97% in the data set filed under Cavia porcellus [3]; 95% in the data set filed under Cavia porcellus [4]; 30% in the data set filed under Cavia porcellus [5]. The compound also showed a pD2 in the data set listed under Cavia porcellus [6] of 4.98. Besides, the Protection in the data set with Mus musculus [7] is listed as 59%. Moreover, the figures for the LD50 in data set [13] and in data set [12] were 450 mg/kg and 666 mg/kg, respectively. For the same compound, in the data set on Rattus norvegicus [14], the ED50 came to 23.5 mg/kg. For the same compound, in the data set with Rattus norvegicus [10], the Peak effect came to 70.
For the compound `CC(Cl)C(=O)Nc1ccc2c(c1)CCC1CC(=O)NN=C21` (stereo not given), in the data set with Mus musculus [7], the Protection was found to be 33%. Also, the LD50 in [13] and in [12] was over 1000 mg/kg throughout.
The compound `Nc1ccc2c(c1)CCCC1CC(=O)NN=C21` (stereo not given) had a Protection in the data set with Mus musculus [7] of 45%. The LD50 in [13] worked out at 483 mg/kg; in [12] it was 700 mg/kg.
As to `CC(=O)Oc1ccccc1C(=O)O` [ASPIRIN], the Inhibition turned out to be 75% in the data set filed under Cavia porcellus [1]; 0% in the data set filed under Cavia porcellus [3]; 100% in the data set filed under Cavia porcellus [4]; 0% in the data set listed under Cavia porcellus [5]; 0% in the data set listed under Cavia porcellus [16]. The Protection with Mus musculus [7] is listed as 44%. Also, the results for the LD50 in data set [15] and in [12] were 6500 mg/kg and over 1000 mg/kg, respectively.
In the case of `Nc1ccc2c(c1)CC1CC(=O)NN=C21` (stereo not given), the pD2 in the data set listed under Cavia porcellus [6] came out at 5.05. This compound also registered a Peak effect in the data set with Rattus norvegicus [10] of 49. This compound displayed a Relative activity in the data set listed under Rattus norvegicus [11] of 0.37. In the data set with Rattus norvegicus [17], this compound returned an ED50 of 11 mg/kg.
As for `N#Cc1ccc2c(c1)CCC1CC(=O)NN=C21` (stereo not given), the Protection entry with Mus musculus [18] was “inactive”. In addition, the values for the LD50 in data set [13] and in data set [12] were 560 mg/kg and over 1000 mg/kg, respectively.
`CC(=O)Nc1ccc2c(c1)CC1CC(=O)NN=C21` (stereo not given) had a pD2 in the data set filed under Cavia porcellus [6] of 5.95. The 50% effect level in the data set with Rattus norvegicus [19] (ED50) was put at a dose of 7.1 mg/kg. This compound returned a Peak effect with Rattus norvegicus [10] of 53. The compound further showed a Relative activity in the data set filed under Rattus norvegicus [11] of 0.58.
`Nc1ccc2c(c1)CCC1CC(=O)NN=C21` (stereo not given): the Inhibition is recorded as 21% in the data set filed under Cavia porcellus [1]; 13% in the data set filed under Cavia porcellus [2]; 27% in the data set listed under Cavia porcellus [3]; 42% in the data set listed under Cavia porcellus [4]; 10% in the data set filed under Cavia porcellus [5]. Further, the pD2 in the data set listed under Cavia porcellus [6] was 4.93. The same compound returned a Protection with Mus musculus [7] of 73%. Also, the figures for the LD50 in data set [13] and in data set [12] were 611 mg/kg and over 1000 mg/kg, respectively. In the data set on Rattus norvegicus [20], this compound gave an ED50 of 3.5 mg/kg. In the data set on Rattus norvegicus [10], this compound gave a Peak effect of 90. This compound also displayed a Relative activity in the data set listed under Rattus norvegicus [11] of 1.17.
With `CC(=O)Nc1ccc2c(c1)CCC1CC(=O)NN=C21` (stereo in doubt; (-)-3c), the Inhibition is 10% in the data set listed under Cavia porcellus [1]; 62% in the data set filed under Cavia porcellus [2]; 63% in the data set listed under Cavia porcellus [3]; 76% in the data set listed under Cavia porcellus [4]; 37% in the data set filed under Cavia porcellus [5]. In the data set on Mus musculus [7] (20 mg/kg), this compound came in with a Protection of 84%.
Regarding `CC(=O)Nc1ccc2c(c1)CCc1cc(O)nnc1-2`, the Inhibition turned out to be 6% in the data set listed under Cavia porcellus [1]; 81% in the data set listed under Cavia porcellus [2]; 86% in the data set filed under Cavia porcellus [3]; 95% in the data set filed under Cavia porcellus [4]; 40% in the data set filed under Cavia porcellus [5]. Moreover, the pD2 in the data set filed under Cavia porcellus [6] was 5.77. Moreover, in the data set with Mus musculus [7], the Protection is 55%. The LD50 in data set [13] was 651 mg/kg; in data set [12] it was over 1000 mg/kg. In the data set on Rattus norvegicus [14], the 50% effective dose (ED50) was determined as 3.6 mg/kg. The same compound displayed a Peak effect in the data set with Rattus norvegicus [10] of 50. In addition, the Relative activity in the data set listed under Rattus norvegicus [11] turned out to be 1.14.
Regarding `CC(=O)Nc1cccc2c1CCC1CC(=O)NN=C21` (stereo not given), the inhibition entry in the data set listed under Cavia porcellus [21] and in the data set listed under Cavia porcellus [22] was “inactive” each time. In the data set on Mus musculus [18], the Protection result is “inactive”. For the same compound, the LD50 was 378 mg/kg in data set [13] and over 1000 mg/kg in data set [12].
The compound `N/N=c1\[nH][nH]/c(=N\N)c2ccccc12` [DIHYDRALAZINE] returned an ED50 with Rattus norvegicus [23] of 64.1 mg/kg. In addition, the Peak effect with Rattus norvegicus [10] was found to be 68. In addition, in the data set listed under Rattus norvegicus [11], the Relative activity is recorded as 1.
Consider `CC(=O)Nc1ccc2c(c1)CCC1CC(=O)NN=C21` (single isomer, unassigned; (+)), for which the Inhibition was 2% in the data set listed under Cavia porcellus [1]; 91% in the data set filed under Cavia porcellus [2]; 100% in the data set listed under Cavia porcellus [3]; 77% in the data set filed under Cavia porcellus [4]; 36% in the data set filed under Cavia porcellus [5]. In the data set listed under Cavia porcellus [6], the pD2 is reported as 5.65. In the data set with Mus musculus [7] (20 mg/kg), this compound came in with a Protection of 89%. This compound also returned an LD50 with Mus musculus [8] of over 1000 mg/kg. Also, the ED50 in the data set with Rattus norvegicus [24] is 2.1 mg/kg. The compound further came in with a Peak effect in the data set on Rattus norvegicus [10] (25 mg/kg) of 55. In the data set filed under Rattus norvegicus [11], this compound yielded a Relative activity of 1.95.
For the compound `Cn1c(=O)c2[nH]cnc2n(C)c1=O.Cn1c(=O)c2[nH]cnc2n(C)c1=O.NCCN` [AMINOPHYLLINE], the pD2 in the data set filed under Cavia porcellus [6] is 5.91.

The record behind these values is ChEMBL document CHEMBL1124348, “Synthesis and biological evaluation of substituted benzo[h]cinnolinones and 3H-benzo[6,7]cyclohepta[1,2-c]pyridazinones: higher homologues of the antihypertensive and antithrombotic 5H-indeno[1,2-c]pyridazinones” (J Med Chem, 1989).
